“And” between values parts separate entries of the source, which are not always exact repeats. Identical values can stand only once.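 Five concentrations, 48 hours, 96-well plates. Abbreviation: GI50, concentration required for 50% inhibition of growth.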 The source made the active and inactive calls. Cut-off read from the data, not from the text of the source: active = GI50 up to about 1.1 µM and inactive = higher.
Key:
Test in all cases: NCI anticancer screen, dose series, 48 h
BT-549 = test system: BT-549
COLO 205 = test system: COLO 205
DU-145 = test system: DU-145
EKVX = test system: EKVX
HCT-15 = test system: HCT-15
HOP-92 = test system: HOP-92
HT-29 = test system: HT-29
Hs-578T = test system: Hs-578T
IGROV-1 = test system: IGROV-1
KM12 = test system: KM12
MDA-MB-231 = test system: MDA-MB-231
MDA-MB-435 = test system: MDA-MB-435
MDA-N = test system: MDA-N
NCI-H226 = test system: NCI-H226
OVCAR-3 = test system: OVCAR-3
OVCAR-4 = test system: OVCAR-4
OVCAR-5 = test system: OVCAR-5
PC-3 = test system: PC-3
RPMI-8226 = test system: RPMI-8226
RXF 393 = test system: RXF 393
SF-268 = test system: SF-268
SF-539 = test system: SF-539
SK-MEL-28 = test system: SK-MEL-28
SK-MEL-2 = test system: SK-MEL-2
SK-MEL-5 = test system: SK-MEL-5
SW-620 = test system: SW-620
T47D = test system: T47D
TK-10 = test system: TK-10
U-251 = test system: U-251
UACC-257 = test system: UACC-257
786-0 = test system: 786-0
A498 = test system: A498
A549 = test system: A549
ACHN = test system: ACHN
CAKI-1 = test system: CAKI-1
CCRF-CEM = test system: CCRF-CEM
HCC 2998 = test system: HCC 2998
HCT-116 = test system: HCT-116
HL-60 = test system: HL-60
HOP-62 = test system: HOP-62
K562 = test system: K562
LOX IMVI = test system: LOX IMVI
M14 = test system: M14
MCF7 = test system: MCF7
MOLT-4 = test system: MOLT-4
NCI-H23 = test system: NCI-H23
NCI-H522 = test system: NCI-H522
NCI/ADR-RES = test system: NCI/ADR-RES
OVCAR-8 = test system: OVCAR-8
SF-295 = test system: SF-295
SK-OV-3 = test system: SK-OV-3
SN12C = test system: SN12C
SNB-19 = test system: SNB-19
SR = test system: SR
UACC-62 = test system: UACC-62
UO-31 = test system: UO-31
Malme-3M = test system: Malme-3M
NCI-H460 = test system: NCI-H460
SNB-75 = test system: SNB-75

CCCCCCCCCCCCCCCCOP(=O)(O)OP(=O)(O)OCC1OC(n2ccc(N)nc2=O)C(O)C1O (stereo not drawn)
GI50 (BT-549): > 93.3 µM (inactive)
GI50 (COLO 205): > 100 µM (inactive)
GI50 (DU-145): > 100 µM (inactive) and 58.2 µM (inactive)
GI50 (EKVX): > 100 µM (inactive)
GI50 (HCT-15): > 100 µM and 98.2 µM
GI50 (HOP-92): > 100 µM (inactive) and 57.1 µM (inactive)
GI50 (HT-29): 51.3 µM (inactive)
GI50 (Hs-578T): > 91.6 µM (inactive)
GI50 (IGROV-1): > 100 µM (inactive) and > 89.7 µM (inactive)
GI50 (KM12): > 100 µM (inactive)
GI50 (MDA-MB-231): > 76.2 µM (inactive)
GI50 (MDA-MB-435): > 100 µM (inactive)
GI50 (MDA-N): > 100 µM (inactive)
GI50 (NCI-H226): 89.3 µM (inactive)
GI50 (OVCAR-3): > 100 µM (inactive)
GI50 (OVCAR-4): > 100 µM (inactive)
GI50 (OVCAR-5): > 100 µM (inactive) and > 61.9 µM (inactive)
GI50 (PC-3): 54.6 µM (inactive)
GI50 (RPMI-8226): > 100 µM (inactive)
GI50 (RXF 393): 58.2 µM (inactive)
GI50 (SF-268): > 100 µM (inactive)
GI50 (SF-539): > 91 µM (inactive)
GI50 (SK-MEL-28): > 100 µM (inactive)
GI50 (SK-MEL-2): > 100 µM (inactive)
GI50 (SK-MEL-5): > 100 µM (inactive) and 53 µM (inactive)
GI50 (SW-620): > 100 µM (inactive) and > 95.7 µM (inactive)
GI50 (T47D): > 74 µM (inactive)
GI50 (TK-10): > 100 µM (inactive)
GI50 (U-251): > 100 µM (inactive) and > 76.7 µM (inactive)
GI50 (UACC-257): > 100 µM (inactive) and > 96.6 µM (inactive)

CC(C)(C)NC(=O)/C(=C\Sc1ccccc1)c1ccc2c(c1)OCO2
GI50 (786-0): 31.9 µM (inactive)
GI50 (A498): 20.4 µM (inactive)
GI50 (A549): 31 µM (inactive)
GI50 (ACHN): 36.9 µM (inactive)
GI50 (BT-549): 75.9 µM (inactive)
GI50 (CAKI-1): 38.4 µM (inactive)
GI50 (CCRF-CEM): 28.5 µM (inactive)
GI50 (COLO 205): 22.4 µM (inactive)
GI50 (DU-145): 37.2 µM (inactive)
GI50 (EKVX): 28.4 µM (inactive)
GI50 (HCC 2998): 37.3 µM (inactive)
GI50 (HCT-116): 24.3 µM (inactive)
GI50 (HCT-15): 30.8 µM
GI50 (HL-60): 18.7 µM (inactive)
GI50 (HOP-62): 44.3 µM (inactive)
GI50 (HOP-92): 15.5 µM (inactive)
GI50 (HT-29): 17.9 µM (inactive)
GI50 (IGROV-1): 29.2 µM (inactive)
GI50 (K562): 43.6 µM (inactive)
GI50 (KM12): 32.4 µM (inactive)
GI50 (LOX IMVI): 16.1 µM (inactive)
GI50 (M14): 21.8 µM (inactive)
GI50 (MCF7): 26.1 µM (inactive)
GI50 (MDA-MB-231): 21.8 µM (inactive)
GI50 (MDA-MB-435): 22.2 µM (inactive)
GI50 (MDA-N): 22.8 µM (inactive)
GI50 (MOLT-4): 21.9 µM (inactive)
GI50 (NCI-H23): 35.3 µM (inactive)
GI50 (NCI-H522): 17.9 µM (inactive)
GI50 (NCI/ADR-RES): 24.2 µM (inactive)
GI50 (OVCAR-3): 30.8 µM (inactive)
GI50 (OVCAR-4): 51.3 µM (inactive)
GI50 (OVCAR-5): 30.6 µM (inactive)
GI50 (OVCAR-8): 32 µM (inactive)
GI50 (PC-3): 22.5 µM (inactive)
GI50 (RPMI-8226): 22.8 µM (inactive)
GI50 (SF-268): 16.2 µM (inactive)
GI50 (SF-295): 39.1 µM (inactive)
GI50 (SF-539): 35.3 µM (inactive)
GI50 (SK-MEL-28): 49 µM (inactive)
GI50 (SK-MEL-2): 15.5 µM (inactive)
GI50 (SK-MEL-5): 17.6 µM (inactive)
GI50 (SK-OV-3): 52.5 µM (inactive)
GI50 (SN12C): 26.7 µM (inactive)
GI50 (SNB-19): 38.7 µM (inactive)
GI50 (SR): 25.8 µM (inactive)
GI50 (SW-620): 37.8 µM (inactive)
GI50 (T47D): 26 µM (inactive)
GI50 (TK-10): 44.8 µM (inactive)
GI50 (U-251): 30 µM (inactive)
GI50 (UACC-257): 25.4 µM (inactive)
GI50 (UACC-62): 19.8 µM (inactive)
GI50 (UO-31): 26.9 µM (inactive)

COc1ccc2c(O)c(Oc3ccc(Cl)cc3)c(=O)oc2c1
GI50 (786-0): > 100 µM (inactive)
GI50 (A498): 38.5 µM (inactive)
GI50 (A549): > 100 µM (inactive)
GI50 (ACHN): 93.3 µM (inactive)
GI50 (BT-549): 36.9 µM (inactive)
GI50 (CAKI-1): 54.3 µM (inactive)
GI50 (CCRF-CEM): > 100 µM (inactive)
GI50 (DU-145): 90.4 µM (inactive)
GI50 (EKVX): > 100 µM (inactive)
GI50 (HCC 2998): 75.7 µM (inactive)
GI50 (HCT-116): > 100 µM (inactive)
GI50 (HCT-15): 41.4 µM
GI50 (HL-60): > 100 µM (inactive)
GI50 (HOP-62): > 100 µM (inactive)
GI50 (HOP-92): 34.5 µM (inactive)
GI50 (HT-29): > 100 µM (inactive)
GI50 (Hs-578T): > 100 µM (inactive)
GI50 (IGROV-1): 60 µM (inactive)
GI50 (K562): > 100 µM (inactive)
GI50 (KM12): > 100 µM (inactive)
GI50 (LOX IMVI): > 100 µM (inactive)
GI50 (M14): 88.9 µM (inactive)
GI50 (MCF7): > 100 µM (inactive)
GI50 (MDA-MB-231): > 100 µM (inactive)
GI50 (MDA-N): > 100 µM (inactive)
GI50 (MOLT-4): > 100 µM (inactive)
GI50 (Malme-3M): 60.7 µM (inactive)
GI50 (NCI-H226): > 100 µM (inactive)
GI50 (NCI-H23): > 100 µM (inactive)
GI50 (NCI-H460): > 100 µM (inactive)
GI50 (NCI-H522): > 100 µM (inactive)
GI50 (OVCAR-3): 83.9 µM (inactive)
GI50 (OVCAR-4): > 100 µM (inactive)
GI50 (OVCAR-5): > 100 µM (inactive)
GI50 (OVCAR-8): > 100 µM (inactive)
GI50 (PC-3): > 100 µM (inactive)
GI50 (RPMI-8226): > 100 µM (inactive)
GI50 (RXF 393): 35.3 µM (inactive)
GI50 (SF-268): > 100 µM (inactive)
GI50 (SF-295): > 100 µM (inactive)
GI50 (SF-539): > 100 µM (inactive)
GI50 (SK-MEL-28): > 100 µM (inactive)
GI50 (SK-MEL-5): > 100 µM (inactive)
GI50 (SN12C): > 100 µM (inactive)
GI50 (SNB-19): 31.4 µM (inactive)
GI50 (SNB-75): 99.5 µM (inactive)
GI50 (SR): > 100 µM (inactive)
GI50 (SW-620): > 100 µM (inactive)
GI50 (T47D): 55.6 µM (inactive)
GI50 (TK-10): 78.3 µM (inactive)
GI50 (U-251): 53.5 µM (inactive)
GI50 (UACC-257): > 100 µM (inactive)
GI50 (UO-31): 27.5 µM (inactive)

O=C(N/N=C(\c1ccccc1)c1ccccn1)NC1CCCCC1
GI50 (786-0): 63.5 µM (inactive)
GI50 (A549): 46.8 µM (inactive)
GI50 (ACHN): 44.6 µM (inactive)
GI50 (BT-549): 42.4 µM (inactive)
GI50 (CAKI-1): 57 µM (inactive)
GI50 (CCRF-CEM): 40.8 µM (inactive)
GI50 (COLO 205): 65 µM (inactive)
GI50 (DU-145): 64.6 µM (inactive)
GI50 (EKVX): 41.8 µM (inactive)
GI50 (HCC 2998): 56.4 µM (inactive)
GI50 (HCT-116): 55.6 µM (inactive)
GI50 (HCT-15): 22.9 µM
GI50 (HOP-62): 23.4 µM (inactive)
GI50 (HOP-92): 61.8 µM (inactive)
GI50 (HT-29): 59.2 µM (inactive)
GI50 (Hs-578T): > 100 µM (inactive)
GI50 (IGROV-1): 30.6 µM (inactive)
GI50 (K562): 5.46 µM (inactive)
GI50 (KM12): 59.3 µM (inactive)
GI50 (LOX IMVI): 19.4 µM (inactive)
GI50 (M14): 30 µM (inactive)
GI50 (MDA-MB-231): 27.7 µM (inactive)
GI50 (MDA-MB-435): > 100 µM (inactive)
GI50 (MDA-N): > 100 µM (inactive)
GI50 (MOLT-4): 41.1 µM (inactive)
GI50 (Malme-3M): 38.6 µM (inactive)
GI50 (NCI-H226): 41.1 µM (inactive)
GI50 (NCI-H23): 47.9 µM (inactive)
GI50 (NCI-H460): 48 µM (inactive)
GI50 (NCI-H522): 47.4 µM (inactive)
GI50 (OVCAR-3): 39.6 µM (inactive)
GI50 (OVCAR-4): 22.7 µM (inactive)
GI50 (OVCAR-5): > 100 µM (inactive)
GI50 (PC-3): 56.2 µM (inactive)
GI50 (RPMI-8226): 48.1 µM (inactive)
GI50 (SF-268): 37.2 µM (inactive)
GI50 (SF-295): 26.6 µM (inactive)
GI50 (SK-MEL-28): > 100 µM (inactive)
GI50 (SK-MEL-2): 82.4 µM (inactive)
GI50 (SK-MEL-5): 40.1 µM (inactive)
GI50 (SK-OV-3): 45.5 µM (inactive)
GI50 (SN12C): 56.5 µM (inactive)
GI50 (SNB-19): > 100 µM (inactive)
GI50 (SNB-75): > 100 µM (inactive)
GI50 (SR): 72.6 µM (inactive)
GI50 (SW-620): 76 µM (inactive)
GI50 (T47D): 28.6 µM (inactive)
GI50 (TK-10): 26.9 µM (inactive)
GI50 (U-251): 51.1 µM (inactive)
GI50 (UACC-257): > 100 µM (inactive)
GI50 (UACC-62): 38.2 µM (inactive)
GI50 (UO-31): 43.5 µM (inactive)
